Measurements taken from PMC11235165, “Delocalized quinolinium-macrocyclic peptides, an atypical chemotype for CNS penetration” (Science Advances, 2024).
Where two headings read alike, the source gives them in different places.

Tests used:
Cyclophilin A (CypA) = Cyclophilin A (CypA) (Homo sapiens, UniProt P62937); test: Fluorescence polarization cyclophilin A binding assay
Experimental: (§1) This was determined using a fluorescence polarization assay ([12]).
Fluorescence Polarization assay.
(§2) Briefly, titration of a single probe concentration
measure binding affinities.
FP -probe. Enzyme, inhibitor and
(ph7.4)) supplemented with 1 mM PMSF.

CypD = CypD (Homo sapiens, UniProt P30405); test: Fluorescence polarization cyclophilin D binding assay
Experimental: as §1
Fluorescence Polarization assay.
as §2
measure binding affinities.

[1] = mouse, in vivo, 10 mg/kg; for Cl_obs: ip
Experimental: (§3) The remaining five compounds were evaluated for plasma and brain levels in a pharmacokinetic experiment in mice.
Pharmacokinetic analysis.
(Cyprotex UK) using LCMSMS.

hERG = hERG (Homo sapiens, UniProt Q12809); test: hERG inhibition; type: biochemical; settings: for inhibition at 25 µM: hERG (% inhibition at 25 μM)
in vivo = settings: ABH, mouse, ip, 10 mg/kg; for level at 24 h: Brain concentrations at 24 hours
Experimental: as §3
Pharmacokinetic analysis.
(Cyprotex UK) using LCMSMS.

[2] = Hepatocyte clearance (human); type: in vitro ADME; settings: human hepatocytes
[3] = Brain tissue binding (fraction unbound); type: in vitro ADME; settings: read-out: Brain tissue (fu)
Excerpt: Table 1. Key data for lead optimization. SD, standard deviation of the mean; SE, standard error of the mean; fu, fraction unbound; ND, not determined. | column: Brain tissue (fu)

[4] = Hepatocyte clearance (mouse); type: in vitro ADME; settings: mouse hepatocytes
[5] = mouse, in vivo, ip, 10 mg/kg
Experimental: as §3
Pharmacokinetic analysis.
(Cyprotex UK) using LCMSMS.

[6] = Pharmacokinetic study, plasma and brain levels by LC-MS/MS; settings: mice; for level at 4 h / level at 1 h: ABH, mouse, ip;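 for all read-outs here: ABH mice, four per group, dosed intraperitoneally, plasma and brain taken at set times after euthanasia, drug levels quantified by LC-MS/MS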
Experimental: as §3
Pharmacokinetic analysis.
(Cyprotex UK) using LCMSMS.

[7] = tested on: mitochondrial permeability transition pore (mPTP); test: Calcium retention capacity (CRC) assay in isolated liver mitochondria; type: biochemical, rat; settings: Table S4 / Fig. S2; rat liver mitochondria; 500 nM; (Treated-NonTreated)/NonTreated)*100
[8] = Plasma protein binding (fraction unbound); type: in vitro ADME; settings: read-out: Plasma protein (fu)
[9] = Table S7, focused SAR set, read-out: CypA Ki
[10] = Table S7, focused SAR set, read-out: CypD Ki
[11] = Table S3, 4-aza substituted quinolinium salts, fluorescence polarization, read-out: Ki (nM) CypA
[12] = Table S2, 4-oxa substituted and O-linked quinolinium salts, fluorescence polarization, read-out: Ki (nM), Cyclophilin A binding affinity

Chain of Cyclophilin A (CypA) (P62937 whole entry): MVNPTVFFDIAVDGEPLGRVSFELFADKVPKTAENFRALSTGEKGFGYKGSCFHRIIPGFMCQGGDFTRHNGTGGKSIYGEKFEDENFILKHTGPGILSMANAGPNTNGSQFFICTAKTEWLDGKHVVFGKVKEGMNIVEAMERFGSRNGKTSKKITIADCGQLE
Chain of hERG (Q12809 whole entry): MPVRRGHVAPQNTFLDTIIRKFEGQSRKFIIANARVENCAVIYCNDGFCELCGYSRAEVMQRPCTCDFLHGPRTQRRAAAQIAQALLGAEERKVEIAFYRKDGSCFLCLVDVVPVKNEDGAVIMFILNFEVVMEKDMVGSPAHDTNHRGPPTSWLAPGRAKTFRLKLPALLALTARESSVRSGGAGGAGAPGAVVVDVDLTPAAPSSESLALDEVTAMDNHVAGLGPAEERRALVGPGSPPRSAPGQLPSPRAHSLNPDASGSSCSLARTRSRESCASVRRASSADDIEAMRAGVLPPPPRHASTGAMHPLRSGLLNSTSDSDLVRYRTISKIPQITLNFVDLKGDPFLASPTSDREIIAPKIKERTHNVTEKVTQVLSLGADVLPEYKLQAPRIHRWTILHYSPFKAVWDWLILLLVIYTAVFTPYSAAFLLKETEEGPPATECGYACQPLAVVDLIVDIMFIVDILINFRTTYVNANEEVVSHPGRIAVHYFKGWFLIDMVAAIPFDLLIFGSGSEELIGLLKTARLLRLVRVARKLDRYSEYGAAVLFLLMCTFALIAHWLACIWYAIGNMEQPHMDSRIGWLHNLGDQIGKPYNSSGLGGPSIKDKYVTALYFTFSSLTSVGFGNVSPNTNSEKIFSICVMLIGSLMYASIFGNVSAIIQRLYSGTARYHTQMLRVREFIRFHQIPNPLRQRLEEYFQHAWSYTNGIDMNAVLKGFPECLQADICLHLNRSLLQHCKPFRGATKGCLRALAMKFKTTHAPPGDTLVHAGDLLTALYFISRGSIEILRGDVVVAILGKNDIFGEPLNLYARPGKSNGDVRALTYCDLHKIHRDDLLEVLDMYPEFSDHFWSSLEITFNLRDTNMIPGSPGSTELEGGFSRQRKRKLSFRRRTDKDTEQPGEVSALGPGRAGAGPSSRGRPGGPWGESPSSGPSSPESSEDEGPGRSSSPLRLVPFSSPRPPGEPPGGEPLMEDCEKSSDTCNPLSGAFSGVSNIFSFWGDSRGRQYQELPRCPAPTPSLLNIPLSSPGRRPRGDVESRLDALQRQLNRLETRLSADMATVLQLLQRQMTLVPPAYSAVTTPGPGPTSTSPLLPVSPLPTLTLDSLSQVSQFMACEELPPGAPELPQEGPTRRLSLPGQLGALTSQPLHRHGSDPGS
Chain of CypD (P30405 30-207): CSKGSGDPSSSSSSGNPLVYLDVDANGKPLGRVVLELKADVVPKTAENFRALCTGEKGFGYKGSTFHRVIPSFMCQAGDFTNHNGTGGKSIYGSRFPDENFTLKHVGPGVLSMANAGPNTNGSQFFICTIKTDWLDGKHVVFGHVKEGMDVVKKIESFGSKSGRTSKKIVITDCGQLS

Compound `CC[C@@H]1NC(=O)[C@H]([C@H](O)[C@H](C)CC=CCCC[n+]2ccc(N3CCCC3)c3ccccc32)N(C)C(=O)[C@H](C(C)C)N(C)C(=O)[C@H](CC(C)C)N(C)C(=O)[C@H](CC(C)C)N(C)C(=O)[C@@H](C)NC(=O)[C@H](C)NC(=O)[C@H](CC(C)C)N(C)C(=O)[C@H](C(C)C)NC(=O)[C@H](CC(C)C)N(C)C(=O)CN(C)C1=O` [JP1-159] has a Ki (Cyclophilin A (CypA); [9]) of 104 nM.
`CC[C@@H]1NC(=O)[C@H]([C@H](O)[C@H](C)CC=CCCC[n+]2ccc(N3CCCC3)c3ccc(C(F)(F)F)cc32)N(C)C(=O)[C@H](C(C)C)N(C)C(=O)[C@H](CC(C)C)N(C)C(=O)[C@H](CC(C)C)N(C)C(=O)[C@@H](C)NC(=O)[C@H](C)NC(=O)[C@H](CC(C)C)N(C)C(=O)[C@H](C(C)C)NC(=O)[C@H](CC(C)C)N(C)C(=O)CN(C)C1=O` [JP1-140] gave a Ki (CypD; [10]) of 76 ± 8 nM.
For `CC[C@@H]1NC(=O)[C@H]([C@H](O)[C@H](C)C/C=C/CCC[n+]2ccc(N3CCOCC3)c3ccccc32)N(C)C(=O)[C@H](C(C)C)N(C)C(=O)[C@H](CC(C)C)N(C)C(=O)[C@H](CC(C)C)N(C)C(=O)[C@@H](C)NC(=O)[C@H](C)NC(=O)[C@H](CC(C)C)N(C)C(=O)[C@H](C(C)C)NC(=O)[C@H](CC(C)C)N(C)C(=O)CN(C)C1=O` [JP1-141], the “Toxicity in the pharmacokinetic experiment” value [1] was “some toxicity”, the Cl_obs [1] was 9.57 × 10^−05 (mg/kg)/(ng/ml).hour and the Ki (Cyclophilin A (CypA); [9]) was 29 nM. For the same compound, the “hERG (% inhibition at 25 μM)” value (hERG; 25 μM) was 63.9%, the inhibition at 25 µM (hERG; 25 μM) was 65% and the level at time molar at 24 h (in vivo) was 642 nM. For the same compound, the level at 24 h (in vivo) was 927 ng/mL, the hepatocyte CLint [2] was 3.62 µL/min/1e6 cells and the fraction unbound [3] was 0.01. The hepatocyte CLint [4] was 3.59 µL/min/1e6 cells, the AUC(0-inf) [5] was 105000 ng·h/mL and the AUC(0-t) [5] was 103000 ng·h/mL. For the same compound, the half-life [5] was 4.04 h.
Work on `CC[C@@H]1NC(=O)[C@H]([C@H](O)[C@H](C)CC=CCCC[n+]2ccc(N(C)Cc3ccccc3)c3ccccc32)N(C)C(=O)[C@H](C(C)C)N(C)C(=O)[C@H](CC(C)C)N(C)C(=O)[C@H](CC(C)C)N(C)C(=O)[C@@H](C)NC(=O)[C@H](C)NC(=O)[C@H](CC(C)C)N(C)C(=O)[C@H](C(C)C)NC(=O)[C@H](CC(C)C)N(C)C(=O)CN(C)C1=O` [JP1-028] yielded a Ki (Cyclophilin A (CypA); [11]) of 35 ± 3 nM.
In the case of `CC[C@@H]1NC(=O)[C@H]([C@H](O)[C@H](C)C/C=C/CCCOc2cc[n+](CCc3ccccc3)c3ccccc23)N(C)C(=O)[C@H](C(C)C)N(C)C(=O)[C@H](CC(C)C)N(C)C(=O)[C@H](CC(C)C)N(C)C(=O)[C@@H](C)NC(=O)[C@H](C)NC(=O)[C@H](CC(C)C)N(C)C(=O)[C@H](C(C)C)NC(=O)[C@H](CC(C)C)N(C)C(=O)CN(C)C1=O` [TWH46], the Ki (Cyclophilin A (CypA); [12]) is reported as 265 ± 111 nM.
In the case of `CC[C@@H]1NC(=O)[C@H]([C@H](O)[C@H](C)C/C=C/CCC[n+]2cccc3ccccc32)N(C)C(=O)[C@H](C(C)C)N(C)C(=O)[C@H](CC(C)C)N(C)C(=O)[C@H](CC(C)C)N(C)C(=O)[C@@H](C)NC(=O)[C@H](C)NC(=O)[C@H](CC(C)C)N(C)C(=O)[C@H](C(C)C)NC(=O)[C@H](CC(C)C)N(C)C(=O)CN(C)C1=O` [JW47, reference compound], the level at 4 h ([6]; plasma, Plasma (ng/mL)) is reported as 4900 ng/mL.
Work on `CC[C@@H]1NC(=O)[C@H]([C@H](O)[C@H](C)CC=CCCC[n+]2ccc(OCc3ccccc3)c3ccccc32)N(C)C(=O)[C@H](C(C)C)N(C)C(=O)[C@H](CC(C)C)N(C)C(=O)[C@H](CC(C)C)N(C)C(=O)[C@@H](C)NC(=O)[C@H](C)NC(=O)[C@H](CC(C)C)N(C)C(=O)[C@H](C(C)C)NC(=O)[C@H](CC(C)C)N(C)C(=O)CN(C)C1=O` [TWH53] yielded a Ki (Cyclophilin A (CypA); [12]) of 158 ± 43 nM and a CRC inhibition % [7] of 18.46%.
`CC[C@@H]1NC(=O)[C@H]([C@H](O)[C@H](C)CC=CCCCOc2cc[n+](CCCc3ccccc3)c3ccccc23)N(C)C(=O)[C@H](C(C)C)N(C)C(=O)[C@H](CC(C)C)N(C)C(=O)[C@H](CC(C)C)N(C)C(=O)[C@@H](C)NC(=O)[C@H](C)NC(=O)[C@H](CC(C)C)N(C)C(=O)[C@H](C(C)C)NC(=O)[C@H](CC(C)C)N(C)C(=O)CN(C)C1=O` [TWH43] gave a Ki (Cyclophilin A (CypA); [12]) of 218 ± 57 nM and a CRC inhibition % [7] of 16.28%.
`CC[C@@H]1NC(=O)[C@H]([C@H](O)[C@H](C)CC=CCCC[n+]2ccc(OCCCc3ccc(OC)cc3)c3ccccc32)N(C)C(=O)[C@H](C(C)C)N(C)C(=O)[C@H](CC(C)C)N(C)C(=O)[C@H](CC(C)C)N(C)C(=O)[C@@H](C)NC(=O)[C@H](C)NC(=O)[C@H](CC(C)C)N(C)C(=O)[C@H](C(C)C)NC(=O)[C@H](CC(C)C)N(C)C(=O)CN(C)C1=O` [TWH44] showed a Ki (Cyclophilin A (CypA); [12]) of 158 ± 17 nM and a CRC inhibition % [7] of 16.95%.
With `CC[C@@H]1NC(=O)[C@H]([C@H](O)[C@H](C)C/C=C/CCC[n+]2ccc(N3CCCCC3)c3ccccc32)N(C)C(=O)[C@H](C(C)C)N(C)C(=O)[C@H](CC(C)C)N(C)C(=O)[C@H](CC(C)C)N(C)C(=O)[C@@H](C)NC(=O)[C@H](C)NC(=O)[C@H](CC(C)C)N(C)C(=O)[C@H](C(C)C)NC(=O)[C@H](CC(C)C)N(C)C(=O)CN(C)C1=O` [JP1-166] the Cl_obs [1] was 1.67 × 10^−04 (mg/kg)/(ng/ml).hour, the Ki (Cyclophilin A (CypA); [9]) was 31 ± 3 nM and the inhibition at 25 µM (hERG; 25 μM) was 31.4%. For the same compound, the level at time molar at 24 h (in vivo) was 86 nM, the level at 24 h (in vivo) was 124 ng/mL and the hepatocyte CLint [2] was 8.01 µL/min/1e6 cells. The fraction unbound [8] was 0.43, the hepatocyte CLint [4] was 9.47 µL/min/1e6 cells and the AUC(0-inf) [5] was 59900 ng·h/mL. The AUC(0-t) [5] was 55000 ng·h/mL and the half-life [5] was 6.75 h.
In the case of `CC[C@@H]1NC(=O)[C@H]([C@H](O)[C@H](C)C/C=C/CCC[n+]2ccc(N(C)C)c3ccccc32)N(C)C(=O)[C@H](C(C)C)N(C)C(=O)[C@H](CC(C)C)N(C)C(=O)[C@H](CC(C)C)N(C)C(=O)[C@@H](C)NC(=O)[C@H](C)NC(=O)[C@H](CC(C)C)N(C)C(=O)[C@H](C(C)C)NC(=O)[C@H](CC(C)C)N(C)C(=O)CN(C)C1=O` [JP1-180], the Ki (CypD; [10]) is reported as 77 ± 46 nM, the Cl_obs [1] is reported as 1.61 × 10^−04 (mg/kg)/(ng/ml).hour and the inhibition at 25 µM (hERG; 25 μM) is reported as 9.75%. It also gave a level at time molar at 24 h (in vivo) of 142 nM, a level at 24 h (in vivo) of 196 ng/mL and a hepatocyte CLint [2] of 4.65 µL/min/1e6 cells. For the same compound, the fraction unbound [8] was 0.17, the hepatocyte CLint [4] was 4.07 µL/min/1e6 cells and the AUC(0-inf) [5] was 62100 ng·h/mL. For the same compound, the AUC(0-t) [5] was 59300 ng·h/mL and the half-life [5] was 5.06 h.
Work on `CC[C@@H]1NC(=O)[C@H]([C@H](O)[C@H](C)CC=CCCC[n+]2ccc(N(C)CCc3ccccc3)c3ccccc32)N(C)C(=O)[C@H](C(C)C)N(C)C(=O)[C@H](CC(C)C)N(C)C(=O)[C@H](CC(C)C)N(C)C(=O)[C@@H](C)NC(=O)[C@H](C)NC(=O)[C@H](CC(C)C)N(C)C(=O)[C@H](C(C)C)NC(=O)[C@H](CC(C)C)N(C)C(=O)CN(C)C1=O` [JP1-037] yielded a Ki (Cyclophilin A (CypA); [11]) of 4.4 ± 2 nM and a CRC inhibition % [7] of 20.61%.
In the case of `CC[C@@H]1NC(=O)[C@H]([C@H](O)[C@H](C)CC=CCCC[n+]2ccc(OCCc3ccccc3)c3ccccc32)N(C)C(=O)[C@H](C(C)C)N(C)C(=O)[C@H](CC(C)C)N(C)C(=O)[C@H](CC(C)C)N(C)C(=O)[C@@H](C)NC(=O)[C@H](C)NC(=O)[C@H](CC(C)C)N(C)C(=O)[C@H](C(C)C)NC(=O)[C@H](CC(C)C)N(C)C(=O)CN(C)C1=O` [TWH30], the Ki (Cyclophilin A (CypA); [12]) is reported as 267 ± 16 nM and the CRC inhibition % [7] is reported as 27.89%.
`CC[C@@H]1NC(=O)[C@H]([C@H](O)[C@H](C)C/C=C/CCC[n+]2ccc(NCCOc3ccccc3)c3ccccc32)N(C)C(=O)[C@H](C(C)C)N(C)C(=O)[C@H](CC(C)C)N(C)C(=O)[C@H](CC(C)C)N(C)C(=O)[C@@H](C)NC(=O)[C@H](C)NC(=O)[C@H](CC(C)C)N(C)C(=O)[C@H](C(C)C)NC(=O)[C@H](CC(C)C)N(C)C(=O)CN(C)C1=O` [JP1-068] gave a Ki (CypD; Table S3, fluorescence polarization, biotinylated-CsA probe, read-out: Ki (nM) CypD) of 38.1 nM, a Ki (Cyclophilin A (CypA); [11]) of 10 nM and an IC50 (hERG) of 1000 to 2000 nM. The level at 1 h ([6]; brain, Brain ng/mL, 1 h) was 110 ng/mL, the level at 4 h ([6]; brain, Brain ng/mL) was 76 ng/mL and the level at 1 h ([6]; plasma, Plasma (ng/mL), 1 h) was 6410 ng/mL. For the same compound, the level at 4 h ([6]; plasma, Plasma (ng/mL)) was 6250 ng/mL and the “Brain” value ([6]; 1 h) was 110 ng/mL.
For `CC[C@@H]1NC(=O)[C@H]([C@H](O)[C@H](C)CC=CCCC[n+]2ccc(NCCc3ccccc3)c3ccccc32)N(C)C(=O)[C@H](C(C)C)N(C)C(=O)[C@H](CC(C)C)N(C)C(=O)[C@H](CC(C)C)N(C)C(=O)[C@@H](C)NC(=O)[C@H](C)NC(=O)[C@H](CC(C)C)N(C)C(=O)[C@H](C(C)C)NC(=O)[C@H](CC(C)C)N(C)C(=O)CN(C)C1=O` [JP1-037H], the Ki (Cyclophilin A (CypA); [11]) was 17 ± 5 nM and the CRC inhibition % [7] was 26.53%.
Compound `CC[C@@H]1NC(=O)[C@H]([C@H](O)[C@H](C)CC=CCCC[n+]2ccc(OCCOc3ccccc3)c3ccccc32)N(C)C(=O)[C@H](C(C)C)N(C)C(=O)[C@H](CC(C)C)N(C)C(=O)[C@H](CC(C)C)N(C)C(=O)[C@@H](C)NC(=O)[C@H](C)NC(=O)[C@H](CC(C)C)N(C)C(=O)[C@H](C(C)C)NC(=O)[C@H](CC(C)C)N(C)C(=O)CN(C)C1=O` [TWH68] has a Ki (Cyclophilin A (CypA); [12]) of 467 ± 85 nM and a CRC inhibition % [7] of 17.71%.
